# Values quoted from earlier work, collected in paper PMC6006448 (ACS Chemical Biology, 2018).
# Tested on: Rac1 and Cdc42
smiles,measurement,value
COc1ccc2cc([C@@H](C)C(=O)O)ccc2c1 [R-naproxen],action on Rac1 and Cdc42 in a cellular setting,inhibitor
